Assay results published in patent US20230416248A1, “COMPOUNDS AND USES THEREOF” (Foghorn Therapeutics Inc., priority 2020, published 2023).
Where two headings read alike, the source gives them in different places.

What was measured:
[1] = biological target: T1, BRM (Homo sapiens, UniProt P51531); assay: ATPase catalytic activity of BRM, ADP-Glo in vitro biochemical assay; details: for IC50: 30 nM BRM, 400 μM ATP; for Ratio* (BRG1 IC50 (μM) divided by BRM IC50 (μM)): selectivity ratio BRG1 IC50 / BRM IC50
T1 construct: made in house; host or cells: High Five insect cells
How it was run: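 Recombinant BRM (30 nM) hydrolysed 400 μM ATP with 20 nM salmon sperm DNA in pH 8 Tris buffer containing 20 mM MgCl2, 50 mM NaCl, 0.1% Tween-20 and 1 mM DTT, 1 h at room temperature. ADP formed was quantified by ADP-Glo luminescence.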

[2] = biological target: T2, BRG-1 (Homo sapiens, UniProt P51532); assay: ATPase catalytic activity of BRG-1, ADP-Glo in vitro biochemical assay; details: 30 nM BRG-1, 400 μM ATP, read-out: BRG1 IC50
T2 construct: made in house; host or cells: High Five insect cells
How it was run: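 Signal reflects ADP produced by the enzyme, quantified as luminescence after unused ATP is cleared and ADP is reconverted to ATP for the luciferase reaction; both steps run at room temperature, 40 and 60 min respectively.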

[3] = ATPase catalytic activity, ADP-Glo

T1 sequence (P51531 whole entry): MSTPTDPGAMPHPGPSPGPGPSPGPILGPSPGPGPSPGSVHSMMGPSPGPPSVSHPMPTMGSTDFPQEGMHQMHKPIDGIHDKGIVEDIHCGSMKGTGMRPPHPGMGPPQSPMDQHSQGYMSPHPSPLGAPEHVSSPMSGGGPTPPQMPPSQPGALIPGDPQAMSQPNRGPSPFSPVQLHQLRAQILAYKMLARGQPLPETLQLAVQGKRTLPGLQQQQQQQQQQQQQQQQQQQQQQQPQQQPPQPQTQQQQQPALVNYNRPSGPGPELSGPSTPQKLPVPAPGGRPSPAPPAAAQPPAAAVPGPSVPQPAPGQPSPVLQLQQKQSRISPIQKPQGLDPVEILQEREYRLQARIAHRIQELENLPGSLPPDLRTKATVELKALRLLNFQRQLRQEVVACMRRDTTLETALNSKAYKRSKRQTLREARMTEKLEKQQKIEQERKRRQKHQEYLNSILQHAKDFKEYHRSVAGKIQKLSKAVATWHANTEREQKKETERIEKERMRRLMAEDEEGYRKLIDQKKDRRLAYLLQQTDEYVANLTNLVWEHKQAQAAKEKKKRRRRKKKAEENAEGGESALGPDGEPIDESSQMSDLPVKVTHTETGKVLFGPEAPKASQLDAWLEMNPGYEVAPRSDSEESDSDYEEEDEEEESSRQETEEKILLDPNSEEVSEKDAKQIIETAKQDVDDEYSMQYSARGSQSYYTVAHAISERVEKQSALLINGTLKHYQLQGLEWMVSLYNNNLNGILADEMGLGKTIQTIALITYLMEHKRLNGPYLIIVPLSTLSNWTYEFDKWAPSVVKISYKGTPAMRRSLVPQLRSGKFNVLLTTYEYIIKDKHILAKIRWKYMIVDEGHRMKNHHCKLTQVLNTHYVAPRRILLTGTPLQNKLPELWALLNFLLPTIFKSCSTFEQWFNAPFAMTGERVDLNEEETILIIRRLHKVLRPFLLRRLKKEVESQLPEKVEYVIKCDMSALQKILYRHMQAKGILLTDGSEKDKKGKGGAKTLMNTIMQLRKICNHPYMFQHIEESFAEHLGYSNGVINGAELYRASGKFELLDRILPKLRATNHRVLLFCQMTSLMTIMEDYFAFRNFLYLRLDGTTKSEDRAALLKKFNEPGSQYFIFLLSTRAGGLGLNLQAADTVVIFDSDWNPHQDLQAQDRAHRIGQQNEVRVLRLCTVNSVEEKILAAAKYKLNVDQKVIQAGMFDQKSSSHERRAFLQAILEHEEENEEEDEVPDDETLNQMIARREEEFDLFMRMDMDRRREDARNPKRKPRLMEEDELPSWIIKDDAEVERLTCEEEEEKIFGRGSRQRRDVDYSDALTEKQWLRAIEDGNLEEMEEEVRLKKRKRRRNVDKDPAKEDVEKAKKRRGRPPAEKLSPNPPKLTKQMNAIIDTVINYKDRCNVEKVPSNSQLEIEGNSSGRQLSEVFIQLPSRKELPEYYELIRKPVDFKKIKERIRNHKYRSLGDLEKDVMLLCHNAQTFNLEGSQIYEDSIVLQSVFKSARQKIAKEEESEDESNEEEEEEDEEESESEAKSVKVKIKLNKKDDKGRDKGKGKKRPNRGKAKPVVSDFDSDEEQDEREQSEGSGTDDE
T2 sequence (P51532 whole entry): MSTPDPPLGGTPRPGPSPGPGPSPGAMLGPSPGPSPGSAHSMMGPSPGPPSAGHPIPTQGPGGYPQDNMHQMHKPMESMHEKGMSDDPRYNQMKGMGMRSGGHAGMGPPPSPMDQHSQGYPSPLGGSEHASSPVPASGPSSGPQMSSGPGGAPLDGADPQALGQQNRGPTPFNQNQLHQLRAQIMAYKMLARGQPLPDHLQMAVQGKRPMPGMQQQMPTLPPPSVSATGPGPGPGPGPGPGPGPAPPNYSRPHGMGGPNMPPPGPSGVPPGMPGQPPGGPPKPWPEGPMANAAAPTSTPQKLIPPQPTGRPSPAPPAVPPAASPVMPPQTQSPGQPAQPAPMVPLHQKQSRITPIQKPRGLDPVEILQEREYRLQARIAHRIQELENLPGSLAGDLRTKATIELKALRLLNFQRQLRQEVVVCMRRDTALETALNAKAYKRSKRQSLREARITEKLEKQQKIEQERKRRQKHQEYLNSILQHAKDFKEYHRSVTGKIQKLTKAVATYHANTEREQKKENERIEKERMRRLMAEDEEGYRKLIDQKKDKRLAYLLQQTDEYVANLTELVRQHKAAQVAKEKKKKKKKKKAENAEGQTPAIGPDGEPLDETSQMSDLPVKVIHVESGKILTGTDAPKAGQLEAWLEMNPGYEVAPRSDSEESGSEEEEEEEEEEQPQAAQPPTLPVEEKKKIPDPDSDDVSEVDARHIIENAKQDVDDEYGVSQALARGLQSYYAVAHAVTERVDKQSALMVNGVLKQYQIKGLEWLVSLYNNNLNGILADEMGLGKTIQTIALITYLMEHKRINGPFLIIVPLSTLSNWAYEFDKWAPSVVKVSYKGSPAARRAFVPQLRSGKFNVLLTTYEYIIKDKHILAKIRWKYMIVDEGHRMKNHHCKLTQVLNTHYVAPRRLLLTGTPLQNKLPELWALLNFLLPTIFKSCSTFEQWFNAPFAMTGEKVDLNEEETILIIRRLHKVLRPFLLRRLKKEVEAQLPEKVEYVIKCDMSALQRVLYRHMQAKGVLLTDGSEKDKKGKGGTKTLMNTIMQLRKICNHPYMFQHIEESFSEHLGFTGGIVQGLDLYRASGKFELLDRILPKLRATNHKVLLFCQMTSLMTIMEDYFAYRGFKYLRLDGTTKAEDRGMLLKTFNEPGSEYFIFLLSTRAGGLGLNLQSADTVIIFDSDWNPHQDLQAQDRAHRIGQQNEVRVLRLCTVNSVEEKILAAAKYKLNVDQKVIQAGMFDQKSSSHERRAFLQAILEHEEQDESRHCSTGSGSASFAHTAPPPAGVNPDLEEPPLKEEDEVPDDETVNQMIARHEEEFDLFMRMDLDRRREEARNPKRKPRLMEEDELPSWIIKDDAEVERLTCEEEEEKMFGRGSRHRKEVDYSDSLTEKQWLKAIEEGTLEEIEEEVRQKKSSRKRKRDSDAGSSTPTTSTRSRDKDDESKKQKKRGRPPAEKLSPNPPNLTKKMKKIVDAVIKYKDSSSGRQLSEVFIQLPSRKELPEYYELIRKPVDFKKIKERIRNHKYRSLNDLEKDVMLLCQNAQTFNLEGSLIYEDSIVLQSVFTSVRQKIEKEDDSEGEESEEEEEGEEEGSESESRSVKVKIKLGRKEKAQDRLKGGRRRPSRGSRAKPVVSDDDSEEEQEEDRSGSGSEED

Structure (SMILES)	IC50 ([1]; ADP-Glo ATPase assay)	Ratio* (BRG1 IC50 (μM) divided by BRM IC50 (μM)) [1]	IC50 ([2]; ADP-Glo ATPase assay)	IC50 [1, 3]	Ratio* ([1]; ratio of BRG1 IC50 to BRM IC50)	IC50 [2, 3]	Ratio* ([1]; ratio BRG1 IC50 / BRM IC50)
[2H]C([2H])([2H])N(c1cccc(-c2ccc3cnc(CNC(=O)c4ccc5c(c4)S(=O)(=O)CCOC5)cc3n2)n1)C([2H])([2H])[2H] [Compound 291]	10.3 nM	9.47	97.2 nM				
O=C(NCc1cc2nc(N3CCCc4ccc(OC(F)F)nc43)ccc2cn1)c1ccc2c(c1)S(=O)(=O)CCOC2 [Compound 643]				108 nM	8.21	889 nM	
Cc1cc(F)c2c(c1)OCCN2c1ccc2cnc(CNC(=O)c3ccc4c(c3)S(=O)(=O)CCOC4)cc2n1 [Compound 764]	9.5 nM		159 nM				16.66
O=C(NCc1cc2nc(N3CCOc4cc(C5CC5)cc(F)c43)ccc2cn1)c1ccc2c(c1)S(=O)(=O)CCOC2 [Compound 765]	23.5 nM		284 nM				12.08
O=C(NCc1cc2nc(N3CCCc4cc(F)c(F)cc43)ccc2cn1)c1ccc2c(c1)S(=O)(=O)CCOC2 [Compound 625]				36.7 nM	14.05	515 nM	
O=C(NCc1cc2nc(-c3cccc(N4CCCC4)n3)ccc2cn1)c1ccc2c(c1)S(=O)(=O)CCOC2 [Compound 220]	16 nM	9.02	144 nM				
O=C(NCc1cc2nc(N3CCCc4cnccc43)ccc2cn1)c1ccc2c(c1)S(=O)(=O)CCOC2 [Compound 90]	166 nM	12.89	2140 nM				
C[C@@H]1CN(c2cncc(-c3ccc4cnc(CNC(=O)c5ccc6c(c5)S(=O)(=O)CCOC6)cc4c3)n2)C[C@H](C)O1 [Compound 211]	7 nM	3.05	21.3 nM				
COC[C@H](C)N(C)c1cccc(-c2ccc3cnc(CNC(=O)c4ccc5c(c4)S(=O)(=O)CCOC5)cc3n2)n1 [Compound 70]	36.8 nM	11.02	406 nM				
O=C(NCc1cc2nc(N3CCc4ccc(Cl)cc43)ccc2cn1)c1ccc2c(c1)S(=O)(=O)CCOC2 [Compound 654]				104 nM	24.78	2570 nM	
COc1cnc2c(c1)CCCN2c1ccc2cnc(CNC(=O)c3ccc4c(c3)S(=O)(=O)CCOC4)cc2n1 [Compound 565]				11.5 nM	12.06	138 nM	
Cc1c(Cl)cc(C(=O)NCc2cc3nc(-c4cncc(C5CC5)n4)ccc3cn2)cc1S(C)(=O)=O [Compound 269]	200 nM	25.03	5000 nM				
O=C(NCc1cc2nc(-c3cccc(C4CC4)n3)cnc2cn1)c1cc(F)c2c(c1)S(=O)(=O)CCOC2 [Compound 424]				20.8 nM	29.03	603 nM	
COC1CCOc2c(-c3ccc4cnc(CNC(=O)c5ccc6c(c5)S(=O)(=O)CCOC6)cc4n3)cccc21 (stereo not drawn) [Compound 168]	94 nM	9.35	879 nM				
Cc1ccc2c(c1)OCCN2c1ccc2cnc(CNC(=O)c3cnc4c(c3)S(=O)(=O)[C@@H](C)COC4)cc2n1 [Compound 749]	12.6 nM		209 nM				16.64
O=C(NCc1cc2nc(-c3ccnc([C@@H]4CC4(F)F)n3)ccc2cn1)c1ccc2c(c1)S(=O)(=O)CCOC2 [Compound 218]	166 nM	9.79	1620 nM				
O=C(NCc1cc2nc(N3CCOc4ccc(C(F)(F)F)nc43)ccc2cn1)c1ccc2c(c1)S(=O)(=O)CCOC2 [Compound 583]				109 nM	17.41	1890 nM	
[2H]C1([2H])OC([2H])([2H])[C@@H](C)S(=O)(=O)c2cc(C(=O)NCc3cc4nc(-c5cccc(N6C[C@@H](C)O[C@@H](C)C6)n5)ccc4cn3)ccc21 [Compound 717]	77 nM		432 nM				5.61

Structure (SMILES)	IC50 ([1]; ADP-Glo ATPase assay)	Ratio* (BRG1 IC50 (μM) divided by BRM IC50 (μM)) [1]	IC50 ([2]; ADP-Glo ATPase assay)	IC50 [1, 3]	Ratio* ([1]; ratio of BRG1 IC50 to BRM IC50)	IC50 [2, 3]	Ratio* ([1]; ratio BRG1 IC50 / BRM IC50)
Cc1ccc(-c2ccc3cnc(CNC(=O)c4ccc5c(c4)S(=O)(=O)CCOC5)cc3n2)c(=O)n1C [Compound 824]	742 nM		4820 nM				6.49
CN(C)[C@H]1CCN(c2cccc(-c3ccc4cnc(CNC(=O)c5ccc6c(c5)S(=O)(=O)CCOC6)cc4n3)n2)CC1(F)F [Compound 81]	275 nM	6.33	1740 nM				
O=C(NCc1cc2nc(N3CCCc4cnc(OC5CC5)cc43)ccc2cn1)c1ccc2c(c1)S(=O)(=O)CCOC2 [Compound 852]	9.8 nM		176 nM				17.95
O=C(NCc1cc2nc(N3CCCc4cccnc43)ccc2cn1)c1ccc2c(c1)S(=O)(=O)CCOC2 [Compound 150]	33.8 nM	11.71	396 nM				
Cc1cc2c(nc1C)N(c1ccc3cnc(CNC(=O)c4ccc5c(c4)S(=O)(=O)CCOC5)cc3n1)CCC2 [Compound 463]				7.8 nM	15.21	119 nM	
COc1cc(C(F)F)ccc1-c1ccc2cnc(CNC(=O)c3ccc4c(c3)S(=O)(=O)CCOC4)cc2n1 [Compound 118]	24.9 nM	10.11	252 nM				
C[C@@H]1CN(c2cccc(-c3ccc4cnc(CNC(=O)c5ccc6c(c5)S(=O)(=O)CCC(F)C6)cc4n3)n2)C[C@H](C)O1 (stereo partly drawn) [Compound 779]	5.5 nM		11.7 nM				2.13
COc1nn([C@H]2C[C@@H](F)C2)cc1-c1ccc2cnc(CNC(=O)c3ccc4c(c3)S(=O)(=O)CCOC4)cc2n1 [Compound 148]	455 nM	6.80	3090 nM				
CO[C@H]1CN(c2cccc(-c3ccc4cnc(CNC(=O)c5ccc6c(c5)S(=O)(=O)CCOC6)cc4n3)n2)C[C@@H]1F [Compound 339]				9.6 nM	8.89	85.8 nM	
CS(=O)(=O)c1cc(C(=O)NCc2cc3nc(-c4cncc(C5CC5)n4)ccc3cn2)cc(F)c1Cl [Compound 272]	245 nM	17.28	4230 nM				
O=C(NCc1cc2nc(-c3cccc(C4(C(F)F)CC4)n3)ccc2cn1)c1ccc2c(c1)S(=O)(=O)CCOC2 [Compound 208]	42.7 nM	8.84	377 nM				
C[C@@]1(c2cccc(-c3ccc4cnc(CNC(=O)c5ccc6c(c5)S(=O)(=O)CCOC6)cc4n3)n2)CC1(F)F [Compound 214]	331 nM	10.01	3310 nM				
CC(C)(F)c1cncc(-c2ccc3cnc(CNC(=O)c4ccc5c(c4)S(=O)(=O)CCOC5)cc3n2)n1 [Compound 262]	466 nM	5.63	2620 nM				
C[C@@H]1CN(c2cccc(-c3ccc4nnc(CNC(=O)c5ccc(Cl)c(S(C)(=O)=O)c5)cc4n3)n2)C[C@H](C)O1 [Compound 406]				5 nM	13.86	69.7 nM	
CO[C@H]1CCN(c2cccc(-c3ccc4cnc(CNC(=O)c5ccc6c(c5)S(=O)(=O)CCOC6)cc4n3)n2)C1 [Compound 201]	19.4 nM	9.11	177 nM				
O=C(NCc1cc2nc(N3CCOc4ccc(C56CC(C5)C6)nc43)ccc2cn1)c1ccc2c(c1)S(=O)(=O)CCOC2 [Compound 766]	17.1 nM		179 nM				10.47
O=C(NCc1cc2nc(N3CCc4cc(C(F)F)cnc43)ccc2cn1)c1ccc2c(c1)S(=O)(=O)CCOC2 [Compound 720]	43.6 nM		231 nM				5.30
COc1cccc2c1CCCN2c1ccc2cnc(CNC(=O)c3cnc4c(c3)S(=O)(=O)[C@@H](C)COC4)cc2n1 [Compound 733]	9.4 nM		84.2 nM				8.96
